Data: patent publication US5972883A, “Method for the treatment of neurodegenerative diseases by administering VIP, an analogue, fragment or a conjugate thereof” (Yeda Research and Development Co. Ltd., priority 1993, dated 1999)
Several values for one entry are separate records, joined by “and”; a condition that tells them apart may be missing. Equal values may be shown once. Entries after “also recorded” stand apart in the source; their conditions may differ.

Tests used:
[1] = Biodistribution following intranasal administration of radioiodinated peptide; assay type: in vivo, rat; settings: rats
Protocol: St-Nle^17 -VIP was labeled with radioactive iodine and 3×10^6cpn/2 μl/rat of the labeled substance were applied intranasally to 250-300 g rats. Animals were sacrificed 15 mins. following drug administration.
Radioactive tissue samples were then homogenized and subjected to centrifugation (5,400×g for 25 mins.). Supernatants were then subjected to HPLC analysis against St-Nle^17 -VIP as a marker. Elution was carried out using acetonitrile gradient at fraction 30. Samples were then weighed and monitored for radioactivity in a gamma counter. To assess for the integrity of the incorporated St-Nle^17 -VIP radioactive tissue, supernatants were subjected to HPLC analysis. Radioactive tissue samples were hornogenized, subjected to centrifugation and supernatnants analyzed by HPLC fractionation against St-Nle-VIP as a marker (eluting using an acetonitrile gradient at fraction 30).

[2] = system: electrically blocked neurons (mouse spinal cord neurons); assay type: cell-based
[3] = system: Sprague Dawley rats; assay: Single dose toxicity, intravenously injected (tail vein); assay type: in vivo, rat
Source text: The single dose toxicity of St-Nle^17 -VIP injected intravenously, in to the tail vein, was investigated in 4 groups of six male and six female rats (Sprague Dawley (S.D.) strain, purchased from Levinstein, Yokneam, Israel).

[4] = system: learning and memory in AF64A-treated rats; assay: Morris water maze, AF64A animal model of Alzheimer, nasal drug administration; assay type: in vivo, rat; settings: daily nasal administration (St-Nle17-VIP 70 μg/40 μl; peptide 6 50 μg/40 μl)
Protocol: 8 Male rats were all treated with AF64A as described above. 10 days after AF64A administration 5 animals received daily nasal administration of St-Nle^17 -VIP dissolved in 10% sefsol and 40% isopropanol at a concentration of 70 μg/40 μl (20 μl administered through each nostril). 3 Animals received daily nasal administration of 50 μg/40 μI of peptide 6, (20 μl/nostril) dissolved in 10% sefsol and 40% isopropanol. 6 Control animals received daily nasal administration of 10% sefsol and 40% isopropanol at an amount of 40 μl/day (20 μl nostril). The animals were partially anesthetized by diethylether prior to nasal administration. Both control and test animals were daily treated with 50,000 units of durabiotic antibiotics to avoid infection. Following 7 days of nasal administration behavioral tests were conducted on both control and test animals for an additional 8 days. […]
(§1) Rats were placed in a circular pool, 1.26 m in diameter, 0.2 m deep, equipped with a clear plexiglas column, with a 13.3 cm platform reaching just below the surface of the water (22-24° C.). […] The latency of reaching the platform was recorded for each rat (in seconds) and the changes over days of training were graphed, which reflect learning and memory.

[5] = system: learning and memory in old rats; assay: Learning and memory in old animals (water pool), nasal administration; assay type: in vivo, rat; settings: rats aged 18-20 months, nasal 100 μg/40 μl/day
Protocol: 6 Male rats aged 18-20 months were divided into hvo groups. Group 1 received daily nasal administrations of St-Nle^17 -VIP dissolved in 10% sefsol at 40% isopropanol at a dose of 100 μg/40 μl/day (20 μl/nostril). Control animals were treated with daily nasal administration of 40 μl/day of 10% sefsol and 40% isopropanol (20 μl/nostril). The administration was carried out after partial anesthetization by diethylether. Animals were thus treated for 7-19 days and then were tested by placing them in a water pool as described above.

[6] = system: Neurons from rat cerebral cortex treated with β-amyloid peptide fragment 25-35; assay: Survival of neurons treated with fragment 25-35 of β-amyloid peptide
[7] = Pharmacological experimentation: biologically active dose; assay type: in vivo; settings: rat
Protocol: The logic of the dose design was as follows: pharmacological experimentation has shown that the biologically active dose is 7 μg per rat. The dose of 1000× the biologically active dose was chosen for this experiment.

[8] = system: learning and memory in AF64A-injected rats; assay: Morris water maze, AF64A animal model of Alzheimer, I.C.V. drug administration; assay type: in vivo, rat; settings: 100 ng I.C.V. daily
Protocol: 13 Male rats were injected intracerebroventricularly (I.C.V.) at a rate of 0.21 μl/min, using plastic tubing (PE-20) attached to 25G needle. 5 rats serving as control received an injection of saline (2 μl/side), 8 other animals received injections of ethylcholine aziridium (AF64A) (3 nmol/2 μl/side). AF64A is an inducer of cholinergic hypofunctions which mimics some of the cholinergic hypofunction reported in Alzheimer's disease and is used for preparing animal models of Alzheimer^(22).
Animals were cannulated following injection to allow I.C.V. drug application and left to recover for a week. Learning and memory tests were conducted using the swim maze test. The 8 animals injected with AF64A were divided into two equal groups and were thereafter injected daily with either saline or 100 ng I.C.V. of St-Nle^17 -VIP. The five control rats (see above) were injected with saline. Following seven injection days, behavioral assays were conducted for an additional 14 days on both control and test animals. […]
as §1

[9] = system: Sprague Dawley rats; assay: Single dose toxicity, orally administered; assay type: in vivo, rat
Source text: The single dose toxicity of St-Nle^17 -VIP administered orally was investigated in 4 groups of six male and six female rats (Sprague Dawley (S.D.) strain, purchased from Levinstein, Yokneam, Israel.)

[10] = system: Sprague Dawley rats; assay: Repeated dose toxicity, topically applied, 13 weeks
[11] = system: VIP receptor; assay: Affinity studies: displacement of radiolabeled VIP on cerebral cortical astrocytes; assay type: binding
Protocol: (a) Cerebral cortical astrocytes were obtained and cultured as described before^16,17). Binding studies were performed on intact cells, 5-7 days after replating at 4° C. in phosphate buffered saline containing 0.1% bovine serum albumin. Cells were divided into two groups. Group 1 was incubated with varying concentrations of St-VIP and Group 2 was incubated with varying concentrations of St-Nle^17 -VIP. After 30 min. incubation with the VIP analogue, 50 pM of ^125 -VIP^(14) was added and incubated for an hour. The media was then removed and cells were washed three times by rapid addition and removal of 1 ml phosphate buffered saline at 4° C. The labeled cells were then dissolved in 0.2 N NaOH and transferred for radioactivity counting by an automatic gamma counter (Wallac 1470 Wizard).

[12] = Stability of test material; assay type: physicochemical
[13] = system: untreated neurons (cerebral cortical cultures); assay: Survival of untreated neurons (naturally occurring death), cerebral cortical cultures; assay type: cell-based; settings: untreated rat cerebral cortical cultures
Protocol: (a) Cerebral cortical cultures were prepared by a slight modification of the techniques described by Forsythe and Westbrook, (a. Physiol. Lond. 396:515 (1988)), in which cerebral cortex was used instead of hippocampus and newborn rats were utilized instead of E16 mice. After nine days growth in vitro, the cultures were given a complete change of medium and treated with serial dilutions of either peptide 1, 2 or 6 in order to determine whether these peptides were effective in protecting neurons from naturally occurring death. Cerebral cortical cells were counted as above, however, only 40 fields per plate were counted comprising an area of 20 mm^2.
(a) Cells were prepared as described in Example 6. After nine days growth in vitro, the cultures were given a complete change of medium and treated with serial dilutions of peptide 5 or of peptide 3 in the presence and in the absence of 10^-8 M of a VIP antagonist described in detail in U.S. Pat. No. 5,217,953. One treatment was given at the beginning of a five day test period. Cell counts were performed on 100 fields, with a total area of 50 mm^2. Neurons were counted without knowledge of treatment.

[14] = i.v., 7 μg/rat + vehicle (group 3)
[15] = i.v., 7,000 μg/rat + vehicle (group 4)
[16] = displacement of radiolabeled VIP, intact astrocytes, 4° C.

Stearoyl-noricucine^17 -VIP [St-Nle^17 -VIP]
distribution to brain after nasal administration ([1]; 15 mins. after intranasal administration): able to reach the brain
integrity of peptide in tissue (HPLC of radioactive supernatants) ([1]; intranasal): reaches its target organs in an active, intact form
potency relative to native VIP in protecting electrically blocked cells from death [2]: about 100 fold
peak of active concentrations ([2]; 1 μM tetrodotoxin): broadening of the peak of active concentrations
animals with necrotic reaction at the site of injection (tail skin) [3, 14]: 58%
mortality [3, 14]: No mortality occurred in groups 1 and 3
animals with necrotic reaction at the site of injection (tail skin) [3, 15]: all the animals
mortality [3, 15]: Seven rats (3 male and 4 female out of 12) died
time of death after administration [3, 15]: ≤ 3 h
other side effects in surviving rats ([3]; i.v., all groups): No other side effects were observed
body weight gain versus vehicle control ([3]; i.v., two weeks study period): increased weight gain
acute intravenous LD50, combined males and females ([3]; i.v., with vehicle, combined males and females): less than 7,000 μg
acute intravenous LD50, males ([3]; i.v., with vehicle, male rats): 7,000 μg/male rat
learning and memory (latency of reaching the platform) [4]: control animals (.quadrature.) show smaller improvement in the latency of reaching the platform
learning and memory (latency of reaching the platform) [5]: showed a greater improvement in the latency of reaching the platform over time as compared to control untreated animals
most effective protective concentration (peak activity) against β-amyloid associated death ([6]; 25 μM β-amyloid fragment 25-35): 10^-13 M
protection of neurons from β-amyloid peptide fragment toxicity ([6]; 25 μM β-amyloid fragment 25-35, 5 days): able to protect neurons from the toxic effect of β-amyloid peptide fragment at all concentrations tested
concentrations protecting also against naturally occurring cell death ([6]; FIG. 7 experiment): 10^-10 M and 10^-9 M
biologically active dose [7]: 7 μg per rat
learning and memory (latency of reaching the platform) [8]: showed recovery of the learning and memory abilities, essentially similar to that of control animals
body weight gain and food consumption ([9]; oral single dose): normal body weight gain
side effects ([9]; oral single dose): No necrotic reactions, or any other side effects were observed
mortality ([9]; oral single dose, up to 7000 μg/rat): No mortality occurred
acute oral LD50 ([9]; oral, rat): greater than 7000 μg/rat
body weight gain or food consumption ([10]; topical daily): No significant differences were detected
clinical pathology (hematology, clinical chemistry) ([10]; topical daily): No dose related or sex related biologically meaningful treatment effects were detected
organ weight analysis ([10]; topical daily): No treatment related differences were noted
adverse effects ([10]; topical daily for 13 weeks, 7, 700, 3500 μg): No dose related adverse effects were detected; also recorded: did not cause any serious adverse effects at any of the dosages tested
mortality ([10]; topical daily, 7, 700, 3500 μg): No mortality associated with drug application was noted
affinity to the high affinity receptor relative to VIP ([11]; VIP value from reference 19): about 100 fold
affinity relative to St-VIP, high concentration zone (low affinity zone) [11, 16]: 10 fold
affinity relative to St-VIP, low concentration (high affinity) zone [11, 16]: 10 fold
stability, powder [12]: for a year

St-His-Ser-Asp-Gly-Ee-Phe-Thr-Asp-Ser-Tyr-Ser-Arg-Tyr-Arg-amide (stearyl-HSDGIFTDSYSRYR-NH2; not fully specified (residue 5); printed as St-His-Ser-Asp-Gly-Ee-Phe-Thr-Asp-Ser-Tyr-Ser-Arg-Tyr-Arg-amide) [peptide 1]
concentrations protecting cells from naturally occurring death [13]: above 10^-8 M

CCCC[C@H](NC(=O)[C@H](CCC(N)=O)NC(=O)[C@H](CCCCN)NC(=O)[C@H](CCCNC(=N)N)NC(=O)[C@H](CC(C)C)NC(=O)[C@H](CCCNC(=N)N)NC(=O)[C@@H](NC(=O)[C@H](Cc1ccc(O)cc1)NC(=O)[C@H](CC(N)=O)NC(=O)[C@H](CC(=O)O)NC(=O)[C@@H](NC(=O)[C@H](Cc1ccccc1)NC(=O)[C@@H](NC(=O)[C@H](C)NC(=O)[C@H](CC(=O)O)NC(=O)[C@H](CO)NC(=O)[C@@H](N)Cc1c[nH]cn1)C(C)C)[C@@H](C)O)[C@@H](C)O)C(=O)N[C@@H](C)C(=O)N[C@H](C(=O)N[C@@H](CCCCN)C(=O)N[C@@H](CCCCN)C(=O)N[C@@H](Cc1ccc(O)cc1)C(=O)N[C@@H](CC(C)C)C(=O)N[C@@H](CC(N)=O)C(=O)N[C@@H](CO)C(=O)N[C@H](C(=O)N[C@@H](CC(C)C)C(=O)N[C@@H](CC(N)=O)C(N)=O)[C@@H](C)CC)C(C)C [Nle^17 -VIP, Norleucine^17 -VIP]
potency relative to native VIP in protecting electrically blocked cells from death [2]: about 10 fold

fragment 25-35 of β-amyloid peptide: β-amyloid peptide fragment comprising amino acids in positions 25 to 35, toxic to neurons in culture (GSNKGAIIGLM; Amyloid-beta protein 42; UniProt P05067 696-706, looked up, fragment) [reference compound]
number of living neurons per tested area ([6]; 25 μM fragment alone, 150 without fragment): 42 neurons
